# Measured values taken from patent US20240050428A1 (Cullgen (Shanghai), Inc., priority 2020, published 2024).
# Like-named read-outs stand apart in the source and are kept apart here.
# How the values were obtained:
# MV4;11 cells = test: Cell viability assay (CellTiter-Glo) in MV4;11 cells, alone or with gilteritinib; format: cell-based; conditions: Homo sapiens, MV4-11, 72 h, MV4;11 cells, three days, CellTiter-Glo, read-out: MV4
# MOLM-13 cells = test: Cell viability assay (CellTiter-Glo) in MOLM-13 cells, alone or with gilteritinib; format: cell-based; conditions: Homo sapiens, MOLM-13, 72 h, MOLM-13 cells, three days, CellTiter-Glo
# [1] = compound alone (without gilteritinib), 11 IC50
# [2] = with gilteritinib 10 nM, 11 IC50 gilteritinib
# [3] = compound alone (without gilteritinib), read-out: MOLM-13 IC50
# [4] = with gilteritinib 20 nM, read-out: MOLM-13 IC50 gilteritinib
compound,measurement,setting,value
"COc1ccc(-c2cn([C@H]3C[C@H](CNc4ccc5c(c4)C(=O)N(C4CCC(=O)NC4=O)C5=O)C3)nc2C2CC2)nc1 (stereo partly drawn) [GS-275, 5-(((trans-3-(3-Cyclopropyl-4-(5-methoxypyridin-2-yl)-1H-pyrazol-1-yl)cyclobutyl)methyl)amino)-2-(2,6-dioxopiperidin-3-yl)isoindoline-1,3-dione]",IC50,MV4;11 cells; [1],10 to 100 nM
same,IC50,MV4;11 cells; [2],10 to 100 nM
same,IC50,MOLM-13 cells; [3],100 to 1000 nM
same,IC50,MOLM-13 cells; [4],10 to 100 nM
"CN(C)c1ccc(-c2cn([C@H]3C[C@H](CNc4ccc5c(c4)C(=O)N(C4CCC(=O)NC4=O)C5=O)C3)nc2C2CC2)nc1 (stereo partly drawn) [GS-276, 5-(((trans-3-(3-Cyclopropyl-4-(5-(dimethylamino)pyridin-2-yl)-1H-pyrazol-1-yl)cyclobutyl)methyl)amino)-2-(2,6-dioxopiperidin-3-yl)isoindoline-1,3-dione]",IC50,MV4;11 cells; [1],10 to 100 nM
same,IC50,MV4;11 cells; [2],< 10 nM
same,IC50,MOLM-13 cells; [3],100 to 1000 nM
same,IC50,MOLM-13 cells; [4],10 to 100 nM
"O=C1CCC(N2C(=O)c3ccc(NC[C@H]4C[C@H](n5cc(-c6ncccc6C(F)(F)F)c(C6CC6)n5)C4)cc3C2=O)C(=O)N1 (stereo partly drawn) [GS-277, 5-(((trans-3-(3-Cyclopropyl-4-(3-(trifluoromethyl)pyridin-2-yl)-1H-pyrazol-1-yl)cyclobutyl)methyl)amino)-2-(2,6-dioxopiperidin-3-yl)isoindoline-1,3-dione]",IC50,MV4;11 cells; [1],< 10 nM
same,IC50,MV4;11 cells; [2],< 10 nM
same,IC50,MOLM-13 cells; [3],< 10 nM
same,IC50,MOLM-13 cells; [4],< 10 nM
"O=C1CCC(N2C(=O)c3ccc(NC[C@H]4C[C@H](n5cc(-c6nccc7[nH]ccc67)c(C6CC6)n5)C4)cc3C2=O)C(=O)N1 (stereo partly drawn) [GS-278, 5-(((trans-3-(3-Cyclopropyl-4-(1H-pyrrolo[3,2-c]pyridin-4-yl)-1H-pyrazol-1-yl)cyclobutyl)methyl)amino)-2-(2,6-dioxopiperidin-3-yl)isoindoline-1,3-dione]",IC50,MV4;11 cells; [1],< 10 nM
same,IC50,MV4;11 cells; [2],< 10 nM
same,IC50,MOLM-13 cells; [3],10 to 100 nM
same,IC50,MOLM-13 cells; [4],< 10 nM
"O=C1CCC(N2C(=O)c3ccc(NC[C@H]4C[C@H](n5cc(-c6cc7cc[nH]c7cn6)c(C6CC6)n5)C4)cc3C2=O)C(=O)N1 (stereo partly drawn) [GS-279, 5-(((trans-3-(3-Cyclopropyl-4-(1H-pyrrolo[2,3-c]pyridin-5-yl)-1H-pyrazol-1-yl)cyclobutyl)methyl)amino)-2-(2,6-dioxopiperidin-3-yl)isoindoline-1,3-dione]",IC50,MV4;11 cells; [1],100 to 1000 nM
same,IC50,MV4;11 cells; [2],10 to 100 nM
same,IC50,MOLM-13 cells; [3],> 1000 nM
same,IC50,MOLM-13 cells; [4],10 to 100 nM
"O=C1CCC(N2C(=O)c3ccc(NC[C@H]4C[C@H](n5cc(-c6nccc7cnccc67)c(C6CC6)n5)C4)cc3C2=O)C(=O)N1 (stereo partly drawn) [GS-280, 5-(((trans-3-(3-Cyclopropyl-4-(2,6-naphthyridin-1-yl)-1H-pyrazol-1-yl)cyclobutyl)methyl)amino)-2-(2,6-dioxopiperidin-3-yl)isoindoline-1,3-dione]",IC50,MV4;11 cells; [1],< 10 nM
same,IC50,MV4;11 cells; [2],< 10 nM
same,IC50,MOLM-13 cells; [3],< 10 nM
same,IC50,MOLM-13 cells; [4],< 10 nM
"O=C1CCC(N2C(=O)c3ccc(NC[C@H]4C[C@H](n5cc(-c6nccc7ncccc67)c(C6CC6)n5)C4)cc3C2=O)C(=O)N1 (stereo partly drawn) [GS-281, 5-(((trans-3-(3-Cyclopropyl-4-(1,6-naphthyridin-5-yl)-1H-pyrazol-1-yl)cyclobutyl)methyl)amino)-2-(2,6-dioxopiperidin-3-yl)isoindoline-1,3-dione]",IC50,MV4;11 cells; [1],< 10 nM
same,IC50,MV4;11 cells; [2],< 10 nM
same,IC50,MOLM-13 cells; [3],10 to 100 nM
same,IC50,MOLM-13 cells; [4],< 10 nM
"O=C1CCC(N2C(=O)c3ccc(NC[C@H]4C[C@H](n5cc(-c6cc7[nH]ccc7cn6)c(C6CC6)n5)C4)cc3C2=O)C(=O)N1 (stereo partly drawn) [GS-282, 5-(((trans-3-(3-Cyclopropyl-4-(1H-pyrrolo[3,2-c]pyridin-6-yl)-1H-pyrazol-1-yl)cyclobutyl)methyl)amino)-2-(2,6-dioxopiperidin-3-yl)isoindoline-1,3-dione]",IC50,MV4;11 cells; [1],10 to 100 nM
same,IC50,MV4;11 cells; [2],< 10 nM
same,IC50,MOLM-13 cells; [3],100 to 1000 nM
same,IC50,MOLM-13 cells; [4],10 to 100 nM
"O=C1CCC(N2C(=O)c3ccc(NC[C@H]4C[C@H](n5cc(-c6ccc(F)cn6)c(C6CC6)n5)C4)cc3C2=O)C(=O)N1 (stereo partly drawn) [GS-283, 5-(((trans-3-(3-Cyclopropyl-4-(5-fluoropyridin-2-yl)-1H-pyrazol-1-yl)cyclobutyl)methyl)amino)-2-(2,6-dioxopiperidin-3-yl)isoindoline-1,3-dione]",IC50,MV4;11 cells; [1],100 to 1000 nM
same,IC50,MV4;11 cells; [2],10 to 100 nM
same,IC50,MOLM-13 cells; [3],> 1000 nM
same,IC50,MOLM-13 cells; [4],10 to 100 nM
"O=C1CCC(N2C(=O)c3ccc(NC[C@H]4C[C@H](n5cc(-c6nccc7ccncc67)c(C6CC6)n5)C4)cc3C2=O)C(=O)N1 (stereo partly drawn) [GS-284, 5-(((trans-3-(3-Cyclopropyl-4-(2,7-naphthyridin-1-yl)-1H-pyrazol-1-yl)cyclobutyl)methyl)amino)-2-(2,6-dioxopiperidin-3-yl)isoindoline-1,3-dione]",IC50,MV4;11 cells; [1],< 10 nM
same,IC50,MV4;11 cells; [2],< 10 nM
same,IC50,MOLM-13 cells; [3],< 10 nM
same,IC50,MOLM-13 cells; [4],< 10 nM
"O=C1CCC(N2C(=O)c3ccc(NC[C@H]4C[C@H](n5cc(-c6cc7nccnc7cn6)c(C6CC6)n5)C4)cc3C2=O)C(=O)N1 (stereo partly drawn) [GS-285, 5-(((trans-3-(3-Cyclopropyl-4-(pyrido[3,4-b]pyrazin-7-yl)-1H-pyrazol-1-yl)cyclobutyl)methyl)amino)-2-(2,6-dioxopiperidin-3-yl)isoindoline-1,3-dione]",IC50,MV4;11 cells; [1],10 to 100 nM
same,IC50,MV4;11 cells; [2],< 10 nM
same,IC50,MOLM-13 cells; [3],100 to 1000 nM
same,IC50,MOLM-13 cells; [4],10 to 100 nM
"O=C1CCC(N2C(=O)c3ccc(NC[C@H]4C[C@H](n5cc(-c6nccc7cccnc67)c(C6CC6)n5)C4)cc3C2=O)C(=O)N1 (stereo partly drawn) [GS-286, 5-(((trans-3-(3-Cyclopropyl-4-(1,7-naphthyridin-8-yl)-1H-pyrazol-1-yl)cyclobutyl)methyl)amino)-2-(2,6-dioxopiperidin-3-yl)isoindoline-1,3-dione]",IC50,MV4;11 cells; [1],< 10 nM
same,IC50,MV4;11 cells; [2],< 10 nM
same,IC50,MOLM-13 cells; [3],< 10 nM
same,IC50,MOLM-13 cells; [4],< 10 nM
"O=C1CCC(N2C(=O)c3ccc(NC[C@H]4C[C@H](n5cc(-c6ncccc6OC(F)(F)F)c(C6CC6)n5)C4)cc3C2=O)C(=O)N1 (stereo partly drawn) [GS-287, 5-(((trans-3-(3-Cyclopropyl-4-(3-(trifluoromethoxy)pyridin-2-yl)-1H-pyrazol-1-yl)cyclobutyl)methyl)amino)-2-(2,6-dioxopiperidin-3-yl)isoindoline-1,3-dione]",IC50,MV4;11 cells; [1],< 10 nM
same,IC50,MV4;11 cells; [2],< 10 nM
same,IC50,MOLM-13 cells; [3],< 10 nM
same,IC50,MOLM-13 cells; [4],< 10 nM
"O=C1CCC(N2C(=O)c3ccc(NC[C@H]4C[C@H](n5cc(-c6cc7[nH]ncc7cn6)c(C6CC6)n5)C4)cc3C2=O)C(=O)N1 (stereo partly drawn) [GS-288, 5-(((trans-3-(3-Cyclopropyl-4-(1H-pyrazolo[4,3-c]pyridin-6-yl)-1H-pyrazol-1-yl)cyclobutyl)methyl)amino)-2-(2,6-dioxopiperidin-3-yl)isoindoline-1,3-dione]",IC50,MV4;11 cells; [1],100 to 1000 nM
same,IC50,MV4;11 cells; [2],10 to 100 nM
same,IC50,MOLM-13 cells; [3],100 to 1000 nM
same,IC50,MOLM-13 cells; [4],10 to 100 nM
"O=C1CCC(N2C(=O)c3ccc(NC[C@H]4C[C@H](n5cc(-c6ccccc6F)c(C6CC6)n5)C4)cc3C2=O)C(=O)N1 (stereo partly drawn) [GS-289, 5-(((trans-3-(3-Cyclopropyl-4-(2-fluorophenyl)-1H-pyrazol-1-yl)cyclobutyl)methyl)amino)-2-(2,6-dioxopiperidin-3-yl)isoindoline-1,3-dione]",IC50,MV4;11 cells; [1],10 to 100 nM
same,IC50,MV4;11 cells; [2],< 10 nM
same,IC50,MOLM-13 cells; [3],100 to 1000 nM
same,IC50,MOLM-13 cells; [4],10 to 100 nM
"O=C1CCC(N2C(=O)c3ccc(NC[C@H]4C[C@H](n5cc(-c6cc(F)ccn6)c(C6CC6)n5)C4)cc3C2=O)C(=O)N1 (stereo partly drawn) [GS-290, 5-(((trans-3-(3-Cyclopropyl-4-(4-fluoropyridin-2-yl)-1H-pyrazol-1-yl)cyclobutyl)methyl)amino)-2-(2,6-dioxopiperidin-3-yl)isoindoline-1,3-dione]",IC50,MV4;11 cells; [1],> 1000 nM
same,IC50,MV4;11 cells; [2],10 to 100 nM
same,IC50,MOLM-13 cells; [3],> 1000 nM
same,IC50,MOLM-13 cells; [4],100 to 1000 nM
